From patent US20070238184A1, “Amyloid beta protein channel structure and uses thereof in identifying potential drug molecules for neurodegenerative diseases” (The Regents of the University of California, priority 2005, published 2007)
No end group written: not given here.

Columns and labels:
[1] = molecular target: T1, channels formed by the 42-residue AbP1-42 (Homo sapiens, UniProt P05067); experiment: Liposomes reconstituted with AbP1-42 channels, channel block; assay type: biochemical
T1 construct: the channels formed by the 42-residue AbP1-42
T1 sequence (P05067 672-713 limits assumed): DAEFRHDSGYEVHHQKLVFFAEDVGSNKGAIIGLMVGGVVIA
Description: (§1) In certain embodiments binding of test agents can be detected by detecting alterations (e.g., decrease) of ion (e.g., Ca^2+) uptake by a cell, oocytes, or liposome in the presence of the test agent(s)-uptake in to the liposomes. This can readily be detected using for example a radio-isotope (e.g., 45Ca^2+) or a calcium sensitive dye (e.g., arsenazo III (AIII), Fura-2, Fluo-3, Fluo-4, Calcium green, etc.).
(§2) Using liposomes reconstituted with AbP channels in the membrane, one can screen for compounds that block AbP channels.

[2] = molecular target: T2, channels formed by the 40 residue AbP1-40 (Homo sapiens, UniProt P05067); experiment: 45Ca2+ uptake into liposomes reconstituted with AbP1-40 channels; assay type: biochemical
T2 construct: the channels formed by the 40 residue AbP1-40
T2 sequence (P05067 672-711 limits assumed): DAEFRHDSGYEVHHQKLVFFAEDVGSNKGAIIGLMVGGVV
Description: as §1, §2

AbP ion channels [3] = experiment: AbP-induced toxicity in cultured cells; assay type: cell-based; details: blocking Ca2+ influx through AbP ion channels
AbP ion channels [4] = experiment: Ca2+ influx through AbP ion channels incorporated into unilaminar liposomes; assay type: biochemical, human
Description: Consistent with these discoveries, we have shown that AbP ion channels mediate Ca^2+ influx when incorporated into unilaminar liposomes, and the Ca^2+ influx was blocked by Zn^2+ and an anti-AbP antibody.

[5] = IV curve conductance across lipid bilayer suspended over silicon chip nanopore; details: 0.2 mg/ml, 135 mM KCl, bilayer only 0.025 nS
Protocol: In order to study the sealing effect of the bilayer over the nanopores in the chip, lipid vesicles were deposited over to chips. After 30 minutes for a bilayer to form from vesicular fusion, the excess unadsorbed lipids and vesicles were rinsed away from the surface. Bulk electrical conductance across the supported nanopore chip and the overlying adsorbed lipid bilayer was measured using a drop of 135 mM KCl solution on top of the chip in which the AFM tip holder assembly was submerged and 135 mM KCl under the nitride membrane. The IV curve measured was near flat and indicates a conductance across the bilayer of 0.025 nS. To check for the possibility of using the nanopore chip to measure ion channel conductance, Gramicidin (a known ion channel forming peptide) was added to the solution at a concentration of 0.2 mg/ml. The effect of Gramicidin on conductance is shown in FIG. 18, while applying a 1V bias to the bottom electrode under the silicon nitride membrane.
For all samples, nano pore membranes were mounted on plastic liquid cells to exchange fluid above or below the membrane. IV curves were obtained in 135 mM KCl solution. Current was measured using the conductive AFM setup with the cantilevered tip holder as an electrode on the top and a reference electrode under the pore-chip (FIG. 20). In absence of an insulating coat, when buffer was present on both sides of the chip, current is measured through the complete tip holder clip. To image current only through the AFM tip apex, conductance was measured with 135 mM KCl solution only under the pore chip and a flow of humid air was maintained over the top surface. This set up also ensured that, by allowing only a local water meniscus between tip and the sample, only the local conductance through each pore was measured.
AFM was also used to image pores after deposition of lipid vesicles (DOPC) prepared by previously described method (Lin et al. (1999) Biochemistry, 38: 11189-11196). Briefly, vesicles were formed by drying 1 mg of DOPC lipid in a glass tube, kept in a desiccator overnight, and rehydrated in buffer with occasional sonication. For vesicle deposition a droplet (50 micro liter, 1 mg/ml) of vesicles was placed on the pore chip, allowed to adsorb for 30 minutes, and rinsed with buffer. After bilayer deposition and before IV measurements, ionic strength was brought back to 135 mM KCl both on top as well as below the pore chip to keep the bilayer hydrated properly, and current was measured through the tip holder. Once a proper seal was achieved by the bilayer, Gramicidin, an ion channel forming peptide (dissolved in milliQ water with 135 mM KCl), was added to the buffer solution, and the current was measured as a function of time while gramicidin interacted with the bilayer.

[6] = Single-channel current recording in planar phospholipid bilayer membranes; details: voltage clamp, peptide added to one side, pH 7.4
Protocol: Planar phospholipid bilayer membranes were formed as described by Mirzabekov et al. (1999) Meth. Enzymol. 294: 61-74. A bubble of lipid dissolved in heptane was placed at the end of a small (100-300 μm) Teflon tube. Silver/silver chloride electrodes connected the aqueous components bounding the membrane to a voltage clamp. Ion-channel currents through the membrane were recorded by an Axopatch amplifier (Axon Instruments, Sunnyvale, Calif.). Data were filtered at 1 kHz and stored on VHS tape. Membrane capacitance and resistance were monitored continuously to ensure the formation and stability of reproducible membranes and the proper membrane thickness. […] Peptide samples were introduced by perfusing the aqueous solution bounding one side of the membrane.

## NC(CO)(CO)CO [Tris]
[1]
  block of AbP1-42 channels: blocked

## [Zn+2] [Zn^2+]
[2]
  block of AbP1-40 channels and inhibition of 45Ca2+ uptake into the liposomes: blocks the channels
[1]
  block of AbP1-42 channels: blocked
AbP ion channels [3]
  effect on AbP-induced toxicity: inhibited AbP-induced toxicity
AbP ion channels [4]
  block of Ca2+ influx mediated by AbP ion channels: blocked

## Gramicidin
[5]; 10 seconds after addition
  conductance after addition of Gramicidin: 0.25 nS
[5]; 2 minutes after addition
  conductance after addition of Gramicidin: 0.5 nS
[5]; 4 minutes after addition
  conductance after addition of Gramicidin: 1 nS
[5]; 4 minutes after addition, listed as gramicidin
  conductance after addition of Gramicidin: roughly 1 nS

## NAC: NAC (α-synuclein 60-95)
[6]
  induction of single-channel ion currents / conductances: Current jumps corresponding to the opening or closing of individual ion channels can be observed

## amyloid-β(1-40) [Aβ(1-40)]
[6]
  induction of single-channel ion currents / conductances: Current jumps corresponding to the opening or closing of individual ion channels can be observed

## islet amyloid polypeptide (KCNTATCATQRLANFLVHSSNNFGAILSSTNVGSNTY; not fully specified (C-terminus, bridges); cysteine pairing not given here; UniProt P10997 34-70, looked up) [Amylin, amyloid peptide synthesized by N-t-butyloxycarbonyl chemistry]
[6]
  induction of single-channel ion currents / conductances: Current jumps corresponding to the opening or closing of individual ion channels can be observed
